The data set in a line: physchem. Particulars: buffer, pH 7.4.

Compound `CC1Cc2ccccc2N1C(=O)c1c(O)cc(Cl)cc1Cl` (stereo not drawn) had a logD of 3.5. As for `O=C(c1c(O)cc(Cl)cc1Cl)N1CCCC2(CCC2)C1`, the pH-dependent lipophilicity (logD) turned out to be 3.7. For the compound `COc1cc(Cl)cc(Cl)c1C(=O)N1CCC2(CCC2)C1`, the logD amounted to 4.

Regarding `O=C(c1ncc(Cl)cc1O)N1CCC2(CCC2)C1`, the logD is 4.9. To `O=C(c1c(O)cc(Cl)cc1Cl)N1CCC(Cc2ccccc2)C1` (stereo not drawn) belongs 3.8; to `O=C(c1c(O)cncc1Cl)N1CCC2(CCC2)C1`, 1.2; to `O=C(c1c(O)cc(Cl)cc1Cl)N1CCC(c2cccnc2)C1` (racemic), 1.7.

Consider `Cn1cc(C2CCN(C(=O)c3c(O)cc(Cl)cc3Cl)C2)cn1` (racemic), for which the logD came to 1.6.

Values taken from ChEMBL document CHEMBL4359832, “Fragment-Based Discovery of Novel Potent Sepiapterin Reductase Inhibitors” (J Med Chem, 2019).
